According to US20200038399A1, “FORMULATIONS, METHODS, KIT, AND DOSAGE FORMS FOR TREATING BACTERIAL INFECTION” (Motif BioSciences Inc., priority 2016, published 2020):
Where “and” joins values, the source holds several entries; their conditions need not be identical. Identical values can stand only once. Counter-ions that a name gives are not always drawn. Like-named read-outs stand apart in the source and are kept apart here.

Key:
S. pneumoniae 1/1 [1] = assay: MIC determination; format: cell-based, Streptococcus pneumoniae; settings: Streptococcus pneumoniae, read-out: Minimum inhibitory concentrations (MIC)
[2] = test system: Staphylococcus aureus, Streptococcus pneumoniae, Haemophilus influenzae, Moraxella catarrhalis and Klebsiella pneumoniae; assay: checkerboard synergy assay with iclaprim, strains pooled; format: cell-based; settings: for synergistic potential with iclaprim: checkerboard experiments, all strains
Description: The synergistic potential of iclaprim against Gram-positive and Gram-negative bacteria was determined using the checkerboard assay as described in Eliopoulos GM and Moellering, Jr. RC (1991), Antimicrobial combinations, pp. 432-492, in V. Lorian (ed.), Antibiotics in laboratory medicine, 3rd Ed., The Williams & Wilkins Co., Baltimore, the entire disclosure of which is herein incorporated by reference, allowing multiple test concentrations of iclaprim to be assayed in the presence of various concentrations of the other antibiotic in microtiter plates. The same growth media and conditions were used as described in 3.2 below.
Two different dilutions were used for iclaprim depending on the MIC determined for the bacterium. […] Iclaprim and the other antibiotic being tested were also dispensed alone in the last row and in the last column, respectively, as controls.
The Fractional Inhibitory Concentrations (FIC) for each added agent were calculated and used to determine the sum of FIC (ΣFIC) indicative of the synergistic potential of a given combination as described in Veyssier P. (1999), Inhibiteurs de la dihydrofolate reductase, nitrohétérocycles (furanes) et 8-hydroxyquinoleines, pp. 995-1027, in A. Bryskier (ed.), Antibiotiques agents antibatériens et antifongiques, 1st Ed., Ellipses Edition Marketing SA, Paris, the entire disclosure of which is herein incorporated by reference. Synergy was defined whereby the ΣFIC was <0.5, indifference (no synergy nor antagonism) whereby ΣFIC was ≥0.5 but ≤4, and antagonism whereby ΣFIC was >4. Additivity as a special form of indifference was defined whereby the ΣFIC was ≥0.5 but <1, for example as described in Stevens, D L et al. (1998), In vitro antimicrobial effects of various combinations of penicillin and clindamycin against four strains of Streptococcus pyogenes, J. Antimicrob. Chemother. 42: 1266-1268, the entire disclosure of which is herein incorporated by reference.

S. aureus 101 [3] = assay: MIC determination; format: cell-based, Staphylococcus aureus
Procedure, shortened: (§1)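 Visible-growth endpoint after 18 h, 37 °C. Cation-adjusted Mueller-Hinton broth was used for K. pneumoniae and S. aureus in ambient air; H. influenzae (HTM) and M. catarrhalis (Brain Heart Infusion) were incubated under 5% CO2.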

[4] = test system: Klebsiella pneumoniae ATCC 33495; assay: checkerboard synergy assay with iclaprim; format: cell-based; settings: antibiotic in combination with iclaprim; K. pneumoniae 33495
[5] = test system: Moraxella catarrhalis RA 21; assay: checkerboard synergy assay with iclaprim; format: cell-based; settings: antibiotic in combination with iclaprim; M. catarrhalis RA 21
[6] = test system: Haemophilus influenzae ATCC 49766; assay: checkerboard synergy assay with iclaprim; format: cell-based; settings: antibiotic in combination with iclaprim; H. influenzae 49766
[7] = test system: Klebsiella pneumoniae ATCC 33495; assay: MIC determination; format: cell-based; settings: Klebsiella pneumoniae, read-out: Minimum inhibitory concentrations (MIC)
Procedure, shortened: as §1

[8] = test system: Staphylococcus aureus ATCC 25923; assay: MIC determination; format: cell-based; settings: Staphylococcus aureus, read-out: Minimum inhibitory concentrations (MIC)
Procedure, shortened: as §1

[9] = test system: Moraxella catarrhalis RA 21; assay: MIC determination; format: cell-based; settings: Moraxella catarrhalis, read-out: Minimum inhibitory concentrations (MIC)
Procedure, shortened: as §1

[10] = test system: Haemophilus influenzae ATCC 49766; assay: MIC determination; format: cell-based; settings: Haemophilus influenzae, read-out: Minimum inhibitory concentrations (MIC)
Procedure, shortened: as §1

[11] = test system: Streptococcus pneumoniae ATCC 49619; assay: MIC determination; format: cell-based; settings: Streptococcus pneumoniae, read-out: Minimum inhibitory concentrations (MIC)
Pneumocystis jirovecii = assay: in vivo Pneumocystis pneumonia model, corticosteroid-treated rats; settings: 50 mg/kg/d oral, once a day for 10 days
Description: Compound solutions were prepared just before use.
The drugs were given once a day for 10 consecutive days. The final concentration of DMSO in diluted drug solutions was between 1.5 and 15%. Control animals were dosed with sterile water with 15% of DMSO. At the end of the experiment, therapeutic efficacy was assessed by counting P. jirovecii in lung homogenates and comparing the counts with those of the untreated controls. Twenty-four hours after the end of the treatment, animals were sacrificed and the lung homogenized in a Stomacher-400 blender as previously described (European Concerted Action on Pneumocystis Research. Parasitology Today 12: 245-9, 1996, the entire disclosure of which is herein incorporated by reference). Parasite quantitation was performed on air-dried smears stained with toluidine blue 0 (cystic forms) or RAL-555 stains (vegetative, precystic and cystic forms).

[12] = in vivo; cited from earlier work
[13] = test system: Staphylococcus aureus ATCC 25923; assay: checkerboard synergy assay with iclaprim; format: cell-based; settings: antibiotic in combination with iclaprim; S. aureus 25923
[14] = test system: Streptococcus pneumoniae ATCC 49619; assay: checkerboard synergy assay with iclaprim; format: cell-based; settings: antibiotic in combination with iclaprim; S. pneumoniae 49619
S. aureus 101 [15] = assay: checkerboard synergy assay with iclaprim; format: cell-based, Staphylococcus aureus; settings: antibiotic in combination with iclaprim
S. pneumoniae 1/1 [16] = assay: checkerboard synergy assay with iclaprim; format: cell-based, Streptococcus pneumoniae; settings: antibiotic in combination with iclaprim
[17] = cited from earlier work
[18] = 1% solution in water; cited from earlier work
[19] = water at 20° C.; cited from earlier work
[20] = S. pneumoniae 1/1, 18 hours at 37° C., 5% CO2
[21] = Staphylococcus aureus, 101, 18 h; read-out: Minimum inhibitory concentrations (MIC)
[22] = ATCC33495, K. pneumonia 33495, 18 hours at 37° C.
[23] = ATCC25923, S. aureus 25923, 18 hours at 37° C.
[24] = RA21, M. catarrhalis RA 21, 18 hours at 37° C., 5% CO2
[25] = ATCC49619, S. pneumoniae 49619, 18 hours at 37° C., 5% CO2
[26] = rat lung, single rat, listed as TMP, 50 mg/kg/day
[27] = single rat, listed as TMP, 50 mg/kg/day
[28] = ATCC49766, H. Influenza 49766, 18 hours at 37° C., 5% CO2

Compound	MIC (S. pneumoniae 1/1 [1]; [20]) [mg/L]	MIC (S. aureus 101 [3]; [21]) [mg/L]	Con (Conclusion) [4]	Con (Conclusion) [5]	Con (Conclusion) [6]	MIC [7, 22] [mg/L]	MIC [8, 23] [mg/L]	MIC [9, 24] [mg/L]	MIC ([10]; ATCC49766, 18 h) [mg/L]	MIC [11, 25] [mg/L]	Σ FIC [4]	Σ FIC [13]	Σ FIC [5]	Σ FIC [6]	Σ FIC [14]	Σ FIC (S. aureus 101 [15])	Σ FIC (S. pneumoniae 1/1 [16])	also measured
Cc1cc(NS(=O)(=O)c2ccc(N)cc2)no1 [Sulfamethoxazole, N1-(5-methyl-3-isoxazolyl)sulfanilamide]	> 128	> 128	Ad (Additivity (Ad))	Syn (Synergy (Syn))	Syn (Synergy (Syn))	> 128	> 128	> 128	128	> 128								synergistic potential with iclaprim [2]: highly synergistic
COc1cc(Cc2cnc(N)nc2N)cc(OC)c1OC [Trimethoprim]	128	> 128	Ind (Indifference (Ind))	Ad (Additivity (Ad))	Ind (Indifference (Ind))	8	1	64	0.5	8	1.13-1.50	1.00-1.25	0.75-1.13	1.00-1.25	1.00-1.25	1.01-1.50	0.56-1.03	Mean % + SD (inhibition of cysts, TBO) (Pneumocystis jirovecii; group mean): 64.2 ± 30.7%; Mean % + SD (inhibition of total parasites, Giemsa) (Pneumocystis jirovecii; group mean): 78.7 ± 22.6%; Total cysts (TBO) (Pneumocystis jirovecii; [26]): 7.16.10^+7 and 9.36.10^+6 and 1.60.10^+8 and 1.32.10^+7; Total parasites (Giemsa) (Pneumocystis jirovecii; [26]): 1.06.10^+9 and 5.81.10^+7 and 6.76.10^+8 and 6.38.10^+7; % of inhibition vs Control (total parasites, Giemsa) (Pneumocystis jirovecii; [27]): 51.3% and 97.3% and 69.0% and 97.1%; % of inhibition vs control (cysts, TBO) (Pneumocystis jirovecii; [27]): 40.6% and 92.2% and 34.9% and 89.0%; t½ (plasma half-life) [12]: about 10.1 hours
Nc1ccc(S(=O)(=O)Nc2ncccn2)cc1 [Sulfadiazine]	> 128	> 128	Syn (Synergy (Syn))	Syn (Synergy (Syn))	Syn (Synergy (Syn))	> 128	> 128	> 128	> 128	> 128	0.27-1.50	0.06-0.53	0.09-0.50	0.16-0.53	0.13-0.53	0.75-1.13	0.28-0.56	synergistic potential with iclaprim [2]: highly synergistic; ΣFIC, range over strains ([2]; in combination with iclaprim, all the strains tested): 0.06-1.50
COc1cc(Cc2cnc(N)nc2N)c2c(c1OC)OC(C1CC1)C=C2 (stereo not drawn) [iclaprim mesylate]																		pKa [17]: 7.2; pH value [18]: 4.2; solubility in water [19]: approximately 10 mg/mL
CN[C@H](CC(C)C)C(=O)N[C@H]1C(=O)N[C@@H](CC(N)=O)C(=O)N[C@H]2C(=O)N[C@H]3C(=O)N[C@H](C(=O)N[C@H](C(=O)O)c4cc(O)cc(O)c4-c4cc3ccc4O)[C@H](O)c3ccc(c(Cl)c3)Oc3cc2cc(c3O[C@@H]2O[C@H](CO)[C@@H](O)[C@H](O)[C@H]2O[C@H]2C[C@](C)(N)[C@H](O)[C@H](C)O2)Oc2ccc(cc2Cl)[C@H]1O [Vancomycin]			Ind (Indifference (Ind))	Ad (Additivity (Ad))	Ind (Indifference (Ind))				128		1.01-1.50	1.03-1.50	0.75-1.13	1.00-1.25	1.00-1.25	0.75-1.25	0.56-1.03	MIC (S. pneumoniae 1/1 [1]; 1/1, 18 h): 0.5 mg/L; MIC (S. aureus 101 [3]; Staphylococcus aureus, 101, 18 h, read-out: Minimum inhibitory concentrations (MIC)): 2 mg/L; MIC ([7]; ATCC33495, 18 h): > 128 mg/L; MIC ([8]; ATCC25923, 18 h): 2 mg/L; MIC ([9]; RA21, 18 h): > 128 mg/L; MIC ([11]; ATCC49619, 18 h): 0.5 mg/L
CCN1CCN(C(=O)N[C@@H](C(=O)N[C@@H]2C(=O)N3[C@@H]2SC(C)(C)[C@@H]3C(=O)O)c2ccccc2)C(=O)C1=O [Piperacillin]	8	> 128	Ad (Additivity (Ad))	Ind (Indifference (Ind))	Ad (Additivity (Ad))	32	0.5	0.25		2	0.53-1.25	1.06-1.50	1.03-1.50	0.54-1.25	1.02-1.50	1.01-1.50	0.63-1.13	MIC [10, 28]: 0.031 mg/L
[H]/N=C(/N)N[C@H]1[C@H](O)[C@@H](O)[C@H](O[C@@H]2O[C@@H](C)[C@](O)(C=O)[C@H]2O[C@@H]2O[C@@H](CO)[C@H](O)[C@@H](O)[C@@H]2NC)[C@@H](N/C(N)=N\[H])[C@@H]1O [Streptomycin]	> 128	8	Ad (Additivity (Ad))	Ind (Indifference (Ind))	Ind (Indifference (Ind))	64	4	8		32	0.63-1.06	1.13-1.50	1.06-1.50	1.02-1.50	1.00-1.25	1.13-1.50	1.01-1.50	MIC [10, 28]: 0.5 mg/L
